Test system: not given
Assay: not given
Conditions: not given

First: N#Cc1ccc(Oc2ccc3c(c2)S(=O)(=O)NC2CCCN32)cc1 (centres unmarked) [Example 5, 4-[(5,5-Dioxido-2,3,3a,4-tetrahydro-1H-pyrrolo[2,1-c][1,2,4]benzothiadiazin-7-yl)oxy]benzonitrile]
Second: Cc1ccc(Oc2ccc3c(c2)S(=O)(=O)NC2CCCN32)cc1 (centres unmarked) [Example 7, 7-(4-Methylphenoxy)-2,3,3a,4-tetrahydro-1H-pyrrolo[2,1-c][1,2,4]-benzothiadiazine 5,5-dioxide]
The melting point of the first is higher: 242 to 245 °C for the first, 222 to 226 °C for the second.

Compared with `N#Cc1cccc(Oc2ccc3c(c2)S(=O)(=O)NC2CCCN32)c1` (centres unmarked) [Example 6, 3-[(5,5-Dioxido-2,3,3a,4-tetrahydro-1H-pyrrolo [2,1-c][1,2,4]benzothiadiazin-7-yl)oxy]benzonitrile], `Cc1cccc(Oc2ccc3c(c2)S(=O)(=O)NC2CCCN32)c1` (centres unmarked) [Example 8, 7-(3-Methylphenoxy)-2,3,3a,4-tetrahydro-1H-pyrrolo[2,1-c][1,2,4]-benzothiadiazine 5,5-dioxide] is lower in melting point: 227 to 230 °C for the first, 190 to 195 °C for the second.

Compared with `COc1ccc(Oc2ccc3c(c2)S(=O)(=O)NC2CCCN32)cc1` (centres unmarked) [Example 9, 7-(4-Methoxyphenoxy)-2,3,3a,4-tetrahydro-1H-pyrrolo[2,1-c][1,2,4]-benzothiadiazine 5,5-dioxide], `O=S1(=O)NC2CCCN2c2ccc(Oc3ccc4ccccc4c3)cc21` (centres unmarked) [Example 21, 7-(2-Naphthyloxy)-2,3,3a,4-tetrahydro-1H-pyrrolo[2,1-c][1,2,4]-benzothiadiazine 5,5-dioxide] is higher in melting point: 188 to 191 °C for the first, 234 to 236 °C for the second.

First: COc1ccccc1Oc1ccc2c(c1)S(=O)(=O)NC1CCCN21 (centres unmarked) [Example 13, 7-(2-Methoxyphenoxy)-2,3,3a,4-tetrahydro-1H-pyrrolo[2,1-c][1,2,4]-benzothiadiazine 5,5-dioxide]
Second: O=S1(=O)NC2CCCN2c2ccc(Oc3cccc4ccccc34)cc21 (centres unmarked) [Example 20, 7-(1-Naphthyloxy)-2,3,3a,4-tetrahydro-1H-pyrrolo[2,1-c][1,2,4]-benzothiadiazine 5,5-dioxide]
The melting point of the first is lower: 175 to 176 °C for the first, 227 to 229 °C for the second.

First: O=[N+]([O-])c1cccc(Oc2ccc3c(c2)S(=O)(=O)NC2CCCN32)c1 (centres unmarked) [Example 15, 7-(3-Nitrophenoxy)-2,3,3a,4-tetrahydro-1H-pyrrolo[2,1-c][1,2,4]-benzothiadiazine 5,5-dioxide]
Second: O=S1(=O)NC2CCCN2c2ccc(Oc3cccc(Cl)c3)cc21 (centres unmarked) [Example 17, 7-(3-Chlorophenoxy)-2,3,3a,4-tetrahydro-1H-pyrrolo[2,1-c][1,2,4]-benzothiadiazine 5,5-dioxide]
The melting point of the first is higher: 201 to 204 °C for the first, 194 to 198 °C for the second.

First: O=S1(=O)NC2CCCN2c2ccc(Oc3cc(C(F)(F)F)cc(C(F)(F)F)c3)cc21 (centres unmarked) [Example 16, 7-[3,5-Di(trifluoromethyl)phenoxy]-2,3,3a,4-tetrahydro-1H-pyrrolo[2,1-c][1,2,4]benzothiadiazine 5,5-dioxide]
Second: O=S1(=O)NC2CCCN2c2ccc(Oc3cccc(OC(F)(F)F)c3)cc21 (centres unmarked) [Example 19, 7-(3-Trifluoromethoxyphenoxy)-2,3,3a,4-tetrahydro-1H-pyrrolo-[2,1-c][1,2,4]benzothiadiazine 5,5-dioxide]
The melting point of the first is higher: 201 to 203 °C for the first, 175 °C for the second.

First: CCOc1cccc(Oc2ccc3c(c2)S(=O)(=O)NC2CCCN32)c1 (centres unmarked) [Example 18, 7-(3-Ethoxyphenoxy)-2,3,3a,4-tetrahydro-1H-pyrrolo[2,1-c][1,2,4]-benzothiadiazine 5,5-dioxide]
Second: CCc1cccc(Oc2ccc3c(c2)S(=O)(=O)NC2CCCN32)c1 (centres unmarked) [Example 35, 7-(3-Ethylphenoxy)-2,3,3a,4-tetrahydro-1H-pyrrolo [2,1-c][1,2,4]-benzothiadiazine 5,5-dioxide]
The melting point of the first is higher: 150 °C for the first, 143 to 144 °C for the second.

First: O=S1(=O)NC2CCCN2c2ccc(Oc3cccc(OCc4ccccc4)c3)cc21 (centres unmarked) [Example 22, 7-(3-Benzyloxyphenoxy)-2,3,3a,4-tetrahydro-1H-pyrrolo-[2,1-c][1,2,4]benzothiadiazine 5,5-dioxide]
Second: O=S1(=O)NC2CCCN2c2ccc(Oc3cccc(F)c3)cc21 (centres unmarked) [Example 37, 7-(3-Fluorophenoxy)-2,3,3a,4-tetrahydro-1H-pyrrolo [2,1-c][1,2,4]-benzothiadiazine 5,5-dioxide]
The melting point of the first is lower: 179 to 182 °C for the first, 201 °C for the second.

First: COC(=O)c1cccc(Oc2ccc3c(c2)S(=O)(=O)NC2CCCN32)c1 (centres unmarked) [Example 26, Methyl 3-[(5,5-dioxido-2,3,3a,4-tetrahydro-1H-pyrrolo[2,1-c][1,2,4]-benzothiadiazin-7-yl)oxy]benzoate]
Second: O=S1(=O)NC2CCCN2c2ccc(Oc3cccc(Br)c3)cc21 (centres unmarked) [Example 38, 7-(3-Bromophenoxy)-2,3,3a,4-tetrahydro-1H-pyrrolo[2,1-c][1,2,4]-benzothiadiazine 5,5-dioxide]
The melting point of the first is higher: 223 to 227 °C for the first, 193 to 195 °C for the second.

First: CCN1CNS(=O)(=O)c2cc(Oc3ccccc3)ccc21 [Example 29, 4-Ethyl-7-phenoxy-3,4-dihydro-2H-1,2,4-benzothiadiazine 1,1-dioxide]
Second: CCCN1CNS(=O)(=O)c2cc(Oc3ccccc3)ccc21 [Example 30, 4-Propyl-7-phenoxy-3,4-dihydro-2H-1,2,4-benzothiadiazine 1,1-dioxide]
The melting point of the first is higher: 179 to 181 °C for the first, 143 to 145 °C for the second.

First: CCN1CNS(=O)(=O)c2cc(Oc3cccc(C#N)c3)ccc21 [Example 31, 3-[(4-Ethyl-1,1-dioxido-3,4-dihydro-2H-1,2,4-benzothiadiazin-7-yl)oxy]benzonitrile]
Second: CCN1CNS(=O)(=O)c2cc(Oc3cccc(C)c3)ccc21 [Example 57, 4-Ethyl-7-(3-methylphenoxy)-3,4-dihydro-2H-[1,2,4]benzothiadiazine 1,1-dioxide]
The melting point of the first is higher: 143 to 146 °C for the first, 72 to 75 °C for the second.

First: CCN1CNS(=O)(=O)c2cc(Oc3cccc(OC)c3)ccc21 [Example 32, 4-Ethyl-7-(3-methoxyphenoxy)-3,4-dihydro-2H-1,2,4-benzothiadiazine 1,1-dioxide]
Second: CCN1CNS(=O)(=O)c2cc(Oc3cccc(C(C)=O)c3)ccc21 [Example 59, 1-{3-[(4-Ethyl-1,1-dioxido-3,4-dihydro-2H-1,2,4-benzothiadiazin-7-yl)oxy]phenyl}ethanone]
The melting point of the first is lower: 91 to 93 °C for the first, 164 to 166 °C for the second.

First: CSc1cccc(Oc2ccc3c(c2)S(=O)(=O)NC2CCCN32)c1 (centres unmarked) [Example 34, 7-(3-Methylsulphanylphenoxy)-2,3,3a,4-tetrahydro-1H-pyrrolo-[2,1-c][1,2,4]benzothiadiazine 5,5-dioxide]
Second: CC(C)c1cccc(Oc2ccc3c(c2)S(=O)(=O)NC2CCCN32)c1 (centres unmarked) [Example 36, 7-(3-Isopropylphenoxy)-2,3,3a,4-tetrahydro-1H-pyrrolo[2,1-c][1,2,4]-benzothiadiazine 5,5-dioxide]
The melting point of the first is lower: 160 °C for the first, 171 to 172 °C for the second.

First: CCN1CNS(=O)(=O)c2cc(Oc3cccc(NS(C)(=O)=O)c3)ccc21 [Example 58, N-{3-[(4-Ethyl-1,1-dioxido-3,4-dihydro-2H-1,2,4-benzothiadiazin-7-yl)oxy]phenyl}methanesulphonamide]
Second: CCN1CNS(=O)(=O)c2cc(Oc3ccc(C)c(C)c3)ccc21 [Example 61, 7-(3,4-Dimethylphenoxy)-4-ethyl-3,4-dihydro-2H-1,2,4-benzothiadiazine 1,1-dioxide]
The melting point of the first is higher: 165 to 168 °C for the first, 109 to 111 °C for the second.

Test system: AMPA receptors
Assay: Excitatory fluxes induced by AMPA in Xenopus oocytes injected with rat cerebral cortex mRNA (2-electrode voltage-clamp)
Type: cell-based
Conditions: rat cortex poly-(A+) mRNA, AMPA 10 μM
Experimental: Study of the Excitatory Fluxes Induced by AMPA in Xenopus oocytes
mRNAs are prepared from cerebral cortex of male Wistar rat by the guanidinium thiocyanate/phenyl/chloroform method. The poly-(A^+) mRNAs are isolated by chromatography on oligo-dT cellulose and injected in an amount of 50 ng per oocyte. The oocytes are left to incubate for 2 to 3 days at 18° C. to allow expression of the receptors and are then stored at from 8 to 10° C.
Electrophysiological recording is carried out in a Plexiglass® chamber at from 20 to 24° C. in OR2 medium (J. Exp. Zool., 1973, 184, 321-334) by the 2-electrode “voltage-clamp” method, a 3rd electrode being placed in the bath to serve as reference.
All the compounds are administered via the incubation medium and the electric current is measured at the end of the period of administration. AMPA is used at a concentration of 10 μM. For each compound studied, the concentration that doubles (EC2X) or quintuples (EC5X) the intensity of the current induced by AMPA alone (5 to 50 nA) is determined.

First: O=S1(=O)NC2CCCN2c2ccc(Oc3ccccc3)cc21 (single isomer, unassigned) [Example 3, 7-Phenoxy-2,3,3a,4-tetrahydro-1H-pyrrolo[2,1-c][1,2,4]-benzothiadiazine 5,5-dioxide, α Isomer]
Second: CCN1CNS(=O)(=O)c2cc(Oc3ccccc3)ccc21 [Example 29, 4-Ethyl-7-phenoxy-3,4-dihydro-2H-1,2,4-benzothiadiazine 1,1-dioxide]
The “EC2X (concentration that doubles the intensity of the current induced by AMPA alone)” value of the first is 1.7-fold lower: 0.8 µM for the first, 1.4 µM for the second.

`O=S1(=O)NC2CCCN2c2ccc(Oc3ccccc3)cc21` (single isomer, unassigned) [Example 3, 7-Phenoxy-2,3,3a,4-tetrahydro-1H-pyrrolo[2,1-c][1,2,4]-benzothiadiazine 5,5-dioxide, α Isomer] and `CCN1CNS(=O)(=O)c2cc(Oc3ccccc3)ccc21` [Example 29, 4-Ethyl-7-phenoxy-3,4-dihydro-2H-1,2,4-benzothiadiazine 1,1-dioxide] are within 1.5-fold of each other in “EC5X (concentration that quintuples the intensity of the current induced by AMPA alone)” value: 3.6 µM for the first, 4.5 µM for the second.

— patent publication US20050124606A1, “Novel benzothiazine and benzothiadiazine derivatives method for preparing same and pharmaceutical compositions containing same” (priority 2001, published 2005)
